Laboratory results reported in patent publication US10562857B2 (AFASCI, Inc., priority 2015, dated 2020).

Assays:
Cav3.1 = target: T1, Cav3.1 (Homo sapiens, UniProt O43497); assay: Whole-cell patch clamp of T-type Cav3.1 channel expressed in HEK293 cells; format: cell-based; details: Table 2
T1 construct: expressed in transfected cells; host or cells: HEK-293, tetracycline inducible expression system (Invitrogen)
Description: Cav3.1, Cav3.2 or Cav3.3 channels were expressed in human embryonic kidney (HEK)-293 cells using a tetracycline inducible expression system (Invitrogen). Cells were maintained in 25 cm^2 tissue culture flasks at 37° C., 5% CO2, and 100% relative humidity in D-MEM/F12 (Dulbecco's Modified Eagle Medium/Nutrient Mixture F-12; Gibco) supplemented with fetal bovine serum (FBS, 10% v/v), sodium pyruvate (0.5 mM, Gibco), penicillin-streptomycin (100 U/mL, 100 μg/mL) and Geneticin® Selective antibiotic (G418; 0.5 mg/mL). Cells were detached from the flask base using a non-enzymatic cell dissociation solution (Cellstripper, Corning), removed and re-seeded on to poly-D-lysine coated glass coverslips in 35 mm dishes.
Whole-cell voltage clamp recordings were performed on rat or mouse DRG neurons within 2 days after acutely dissociation or cultured HEK293 cells expressing T-type channels (encoded by Cav3.1, Cav3.2 or Cav3.3 channels). All experiments were performed at room temperature (around 21° C.). Whole-cell currents were recorded using a MultiClamp 700B amplifier and analyzed offline with pCLAMP10.4 software (Molecular Devices, LLC, Sunnyvale Calif., USA). […] Since the sodium ions were absent in the external solution, tetrodoctoxin was not needed. Calcium currents were recorded at a holding potential of −100 mV and then depolarized to −30 mV for 100 ms to activate either Cav3.1, Cav3.2, or Cav3.3 expressed in HEK cells. An interpulse interval of 10 seconds allowed the channel recovery from inactivation, and achieved stable current recordings. To record sodium (Na^+) currents in DRG neurons, the external solution used the modified Krebs solution specified above. The internal solution was composed (in mM) of 120 CsF, 10 HEPES, 11 EGTA, 1 CaCl2, 1 MgCl2, 10 TEA-Cl, 4 MgATP and 0.3 MgGTP (pH 7.3-7.4 adjusted with CsOH). […] To record potassium currents in DRG neurons, the external solution used the modified Kreb's solution specified above. The internal solution was composed (in mM) of 65 KCl, 80 KF, 5 KOH, 10 EGTA, 2 MgATP (pH 7.3-7.4 adjusted with KOH). Recording electrodes were fabricated using a P-87 puller (Sutter Instrument Co., Novato, Calif., USA). The tip of resistance was 3-4 MQ in bath and the series resistance was less than 10 MΩ after whole cell configuration. All reagents were purchased from Sigma unless specified otherwise. Test compounds were usually applied via a rapid solution exchange system with 8 fine polyplastic tubings (100 μm, OD) glued in a holder in parallel and located closely to the recorded cells. The current responses were normalized to the control, percent inhibition was calculated and sigmoidal dose-response curves were generated using XLFit (IDBS, Surrey, UK) or Prism (GraphPad Software, La Jolla, Calif., US) to calculate IC50 values and Hill slopes using the following equation Y=Bottom+(Top−Bottom)/(1+10^((Log EC50−X)[…])).

[1] = target: Cav2.2 (N-type Ca channel) (Homo sapiens, UniProt Q00975); assay: Patch clamp of Cav2.2 N-type Ca channel; format: cell-based; details: Table 2

T1 sequence (O43497 whole entry): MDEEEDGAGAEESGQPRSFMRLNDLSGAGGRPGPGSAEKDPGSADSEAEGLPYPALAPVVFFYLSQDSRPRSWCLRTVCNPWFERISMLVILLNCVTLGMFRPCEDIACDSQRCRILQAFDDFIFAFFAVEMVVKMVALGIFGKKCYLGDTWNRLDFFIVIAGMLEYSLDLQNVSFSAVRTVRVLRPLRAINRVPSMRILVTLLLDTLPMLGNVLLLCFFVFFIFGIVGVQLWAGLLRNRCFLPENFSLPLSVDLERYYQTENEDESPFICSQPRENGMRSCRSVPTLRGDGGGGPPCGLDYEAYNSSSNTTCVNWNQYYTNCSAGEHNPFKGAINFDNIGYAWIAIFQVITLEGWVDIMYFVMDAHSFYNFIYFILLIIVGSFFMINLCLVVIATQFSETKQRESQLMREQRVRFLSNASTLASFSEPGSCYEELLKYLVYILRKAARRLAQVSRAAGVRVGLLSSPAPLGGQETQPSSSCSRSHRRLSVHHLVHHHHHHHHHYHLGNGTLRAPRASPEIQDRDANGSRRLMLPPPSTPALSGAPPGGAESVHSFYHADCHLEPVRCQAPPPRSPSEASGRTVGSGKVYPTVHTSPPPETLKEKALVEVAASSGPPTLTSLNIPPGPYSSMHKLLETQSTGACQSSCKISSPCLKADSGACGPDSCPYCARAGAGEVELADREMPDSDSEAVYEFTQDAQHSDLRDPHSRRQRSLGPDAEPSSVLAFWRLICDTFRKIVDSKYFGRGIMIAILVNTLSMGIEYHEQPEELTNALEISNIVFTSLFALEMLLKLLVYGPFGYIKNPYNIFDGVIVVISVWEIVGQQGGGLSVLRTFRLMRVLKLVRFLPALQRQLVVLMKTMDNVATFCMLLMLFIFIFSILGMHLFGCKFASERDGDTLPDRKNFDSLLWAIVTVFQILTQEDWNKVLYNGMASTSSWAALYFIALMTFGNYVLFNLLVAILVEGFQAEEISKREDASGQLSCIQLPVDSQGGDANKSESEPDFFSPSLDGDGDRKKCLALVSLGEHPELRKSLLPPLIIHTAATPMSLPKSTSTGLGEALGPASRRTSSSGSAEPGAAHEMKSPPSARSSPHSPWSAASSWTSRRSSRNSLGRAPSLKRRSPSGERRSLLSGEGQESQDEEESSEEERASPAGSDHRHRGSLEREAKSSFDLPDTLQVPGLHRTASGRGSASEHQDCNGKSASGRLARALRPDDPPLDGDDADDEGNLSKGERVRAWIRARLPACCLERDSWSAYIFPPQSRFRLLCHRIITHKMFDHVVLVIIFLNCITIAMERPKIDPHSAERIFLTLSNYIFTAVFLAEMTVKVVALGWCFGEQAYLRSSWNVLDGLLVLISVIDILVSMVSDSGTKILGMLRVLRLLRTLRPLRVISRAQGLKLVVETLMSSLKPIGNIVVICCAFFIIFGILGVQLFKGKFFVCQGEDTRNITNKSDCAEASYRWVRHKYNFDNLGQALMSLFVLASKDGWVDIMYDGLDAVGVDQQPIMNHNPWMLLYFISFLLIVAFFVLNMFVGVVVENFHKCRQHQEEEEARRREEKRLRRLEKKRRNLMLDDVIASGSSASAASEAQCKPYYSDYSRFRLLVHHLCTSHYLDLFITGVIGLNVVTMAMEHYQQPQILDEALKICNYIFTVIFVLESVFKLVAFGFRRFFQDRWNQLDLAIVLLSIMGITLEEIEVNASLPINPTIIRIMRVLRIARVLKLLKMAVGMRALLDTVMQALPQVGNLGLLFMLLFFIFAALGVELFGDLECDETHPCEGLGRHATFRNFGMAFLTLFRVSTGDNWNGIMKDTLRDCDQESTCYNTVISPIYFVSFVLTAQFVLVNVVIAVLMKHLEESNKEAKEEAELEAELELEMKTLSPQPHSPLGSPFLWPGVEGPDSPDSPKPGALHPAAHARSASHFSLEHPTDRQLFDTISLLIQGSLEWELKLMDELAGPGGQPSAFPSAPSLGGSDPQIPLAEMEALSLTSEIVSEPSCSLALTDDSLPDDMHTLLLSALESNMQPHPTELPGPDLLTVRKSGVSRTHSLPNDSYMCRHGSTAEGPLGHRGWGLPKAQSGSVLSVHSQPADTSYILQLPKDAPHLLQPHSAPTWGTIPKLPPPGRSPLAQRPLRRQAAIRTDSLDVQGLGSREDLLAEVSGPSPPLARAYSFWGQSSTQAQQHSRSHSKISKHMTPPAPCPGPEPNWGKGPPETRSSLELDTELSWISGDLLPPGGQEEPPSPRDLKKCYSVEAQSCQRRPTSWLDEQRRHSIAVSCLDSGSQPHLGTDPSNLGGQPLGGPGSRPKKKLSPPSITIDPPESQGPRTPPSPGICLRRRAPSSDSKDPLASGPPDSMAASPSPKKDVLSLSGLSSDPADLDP

SMILES	IC50 (Cav3.1)	IC50 [1]
CC(C)(C)NC(=O)CN1CCC2(CC1)C[C@H]2NC(=O)c1cc(Cl)cc(Cl)c1 (single isomer, unassigned) [Example 57, (R)—N-(6-(2-(tert-Butylamino)-2-oxoethyl)-6-azaspiro[2.5]octan-1-yl)-3,5-dichlorobenzamide or (S)—N-(6-(2-(tert-Butylamino)-2-oxoethyl)-6-azaspiro[2.5]octan-1-yl)-3,5-dichlorobenzamide]	130 nM	> 30000 nM
CC(C)(C)NC(=O)CN1CCC2(CC1)CC2NC(=O)c1cc(F)cc(Cl)c1 (single isomer, unassigned) [Example 128, (S)—N-(6-(2-(tert-Butylamino)-2-oxoethyl)-6-azaspiro[2.5]octan-1-yl)-3-chloro-5-fluorobenzamide or (R)—N-(6-(2-(tert-Butylamino)-2-oxoethyl)-6-azaspiro[2.5]octan-1-yl)-3-chloro-5-fluorobenzamide]	60 nM	> 10000 nM
CC(C)(C)NC(=O)CN1CCC2(CC1)C[C@H]2NC(=O)c1cc(F)cc(Cl)c1 (single isomer, unassigned) [Example 129, (R)—N-(6-(2-(tert-Butylamino)-2-oxoethyl)-6-azaspiro[2.5]octan-1-yl)-3-chloro-5-fluorobenzamide or (S)—N-(6-(2-(tert-Butylamino)-2-oxoethyl)-6-azaspiro[2.5]octan-1-yl)-3-chloro-5-fluorobenzamide]	1040 nM	> 30000 nM
CC(C)(C)NC(=O)CN1CCC2(CC1)C[C@H]2NC(=O)c1cc(F)cc(C(F)(F)F)c1 (single isomer, unassigned) [Example 130, (R)—N-(6-(2-(tert-Butylamino)-2-oxoethyl)-6-azaspiro[2.5]octan-1-yl)-3-fluoro-5-(trifluoromethyl)benzamide or (S)—N-(6-(2-(tert-Butylamino)-2-oxoethyl)-6-azaspiro[2.5]octan-1-yl)-3-fluoro-5-(trifluoromethyl)benzamide]	110 nM	> 30000 nM
CC(C)(C)NC(=O)CN1CCC2(CC1)C[C@H]2C(=O)Nc1cc(C(F)(F)F)cc(C(F)(F)F)c1 (single isomer, unassigned) [Example 132, (R)—N-(3,5-Bis(trifluoromethyl)phenyl)-6-(2-(tert-butylamino)-2-oxoethyl)-6-azaspiro[2.5]octane-1-carboxamide or (S)—N-(3,5-Bis(trifluoromethyl)phenyl)-6-(2-(tert-butylamino)-2-oxoethyl)-6-azaspiro[2.5]octane-1-carboxamide]	120 nM	3100 nM
CC(C)(C)NC(=O)CN1CCC2(CC1)C[C@H]2NC(=O)c1cc(C(F)(F)F)cc(C(F)(F)F)c1 (single isomer, unassigned) [Example 144, ((R)—N-(6-(2-(tert-butylamino)-2-oxoethyl)-6-azaspiro[2.5]octan-1-yl)-3,5-bis(trifluoromethyl)benzamide or (S)—N-(6-(2-(tert-butylamino)-2-oxoethyl)-6-azaspiro[2.5]octan-1-yl)-3,5-bis(trifluoromethyl)benzamide]	40 nM	12300 nM
CC(C)(C)NC(=O)CN1CCC2(CC1)C[C@H]2NC(=O)C12CC3CC(CC(C3)C1)C2 (single isomer, unassigned) [Example 145, N—((R)-6-(2-(tert-butylamino)-2-oxoethyl)-6-azaspiro[2.5]octan-1-yl)adamantane-1-carboxamide or N—((S)-6-(2-(tert-butylamino)-2-oxoethyl)-6-azaspiro[2.5]octan-1-yl)adamantane-1-carboxamide]	70 nM	15600 nM
CC(C)(C)CCN1CCC2(CC1)C[C@H]2NC(=O)c1cc(C(F)(F)F)cc(C(F)(F)F)c1 (single isomer, unassigned) [Example 146, (R)—N-(6-(3,3-dimethylbutyl)-6-azaspiro[2.5]octan-1-yl)-3,5-bis(trifluoromethyl)benzamide or (S)—N-(6-(3,3-dimethylbutyl)-6-azaspiro[2.5]octan-1-yl)-3,5-bis(trifluoromethyl)benzamide]	120 nM	2500 nM
CC(C)(C)CCN1CCC2(CC1)C[C@H]2NC(=O)c1cc(C(F)(F)F)ccc1Cl (single isomer, unassigned) [Example 147, (R)-2-Chloro-N-(6-(3,3-dimethylbutyl)-6-azaspiro[2.5]octan-1-yl)-5-(trifluoromethyl)benzamide or (S)-2-Chloro-N-(6-(3,3-dimethylbutyl)-6-azaspiro[2.5]octan-1-yl)-5-(trifluoromethyl)benzamide]	2410 nM	5600 nM
CC(C)(C)NC(=O)CN1CCC2(CC1)CC2NC(=O)c1cc(F)cc(Cl)c1 (stereo not shown) [Example 17, N-(6-(2-(tert-Butylamino)-2-oxoethyl)-6-azaspiro[2.5]octan-1-yl)-3-chloro-5-fluorobenzamide]	290 nM	> 30000 nM
CC(C)(C)CCN1CCC2(CC1)CC2NC(=O)c1cc(F)cc(Cl)c1 (stereo not shown) [Example 28, 3-Chloro-N-(6-(3,3-dimethylbutyl)-6-azaspiro[2.5]octan-1-yl)-5-fluorobenzamide]	280 nM	9400 nM
CC(C)(C)NC(=O)CN1CCC2(CC1)CC2C(=O)Nc1cc(F)cc(C(F)(F)F)c1 (stereo not shown) [Example 141, 6-(2-(tert-Butylamino)-2-oxoethyl)-N-(3-fluoro-5-(trifluoromethyl)phenyl)-6-azaspiro[2.5]octane-1-carboxamide]	340 nM	5100 nM
CC(C)(C)CCN1C[C@@H]2[C@@H](CNC(=O)c3cc(Cl)cc(Cl)c3)[C@@H]2C1 [ML218, 3,5-Dichloro-N-[[(1α,5α,6-exo,6α)-3-(3,3-dimethylbutyl)-3-azabicyclo[3.1.0]hex-6-yl]methyl]benzamide, reference compound]	140 nM	20700 nM
CC(C)(C)NC(=O)CN1CCC(CNC(=O)c2cc(F)cc(Cl)c2)CC1 [Z944, reference compound]	110 nM	> 30000 nM
